In patent US8153821B2, “Compounds” (priority 2008, dated 2012):

Key:
[1] = target: T1, human native ganglion receptors (Homo sapiens, UniProt P30926+P32297); experiment: Ca flux assay, SH-SY5Y cells; format: cell-based
T1 construct: human native ganglion-type nicotinic receptors (likely α3β4); endogenous in cells; host or cells: SH-SY5Y
Experimental: The cell line SH-SY5Y is a continuous line derived by sequential subcloning of the parental cell line, SK-N-SH, which was originally obtained from a human peripheral neuroblastoma. SH-SY5Y cells express a ganglion-like nAChR (Lukas et al., Mol. Cell. Neurosci. 4: 1 (1993)).
(R)-3-((E)-2-(Pyrrolidin-3-yl)vinyl)-5-(tetrahydropyran-4-yloxy)pyridine or a salt thereof was tested in ganglion and muscle-type nicotinic receptor ion flux assays to examine functional selectivity.

CYP1A2 = CYP1A2 (Homo sapiens, UniProt P05177); format: in vitro ADME
CYP2B6 = CYP2B6 (Homo sapiens, UniProt P20813); format: in vitro ADME
[2] = target: T2, rat native α4β2 receptors (Rattus norvegicus, UniProt P09483+P12390); experiment: Radioligand binding, rat native α4β2 in rat cortical membranes
T2 construct: rat native α4β2 receptors in rat cortical membranes; from tissue; host or cells: rat cerebral cortex (female Sprague-Dawley)
Experimental: Preparation of membranes from rat cortex: Rats (female, Sprague-Dawley), weighing 150-250 g, were maintained on a 12 h light/dark cycle and were allowed free access to water and food supplied by PMI Nutrition International, Inc. Animals were anesthetized with 70% CO2, and then decapitated. Brains were removed and placed on an ice-cold platform. The cerebral cortex was removed and placed in 20 volumes (weight:volume) of ice-cold preparative buffer (137 mM NaCl, 10.7 mM KCl, 5.8 mM KH2PO4, 8 mM Na2HPO4, 20 mM HEPES (free acid), 5 mM iodoacetamide, 1.6 mM EDTA, pH 7.4); PMSF, dissolved in methanol to a final concentration of 100 μM, was added and the suspension was homogenized by Polytron. […]
Assay. […] Protein concentrations were determined using a Pierce BCA Protein Assay Kit, with bovine serum albumin as the standard (Pierce Chemical Company, Rockford, Ill.).
Incubation was terminated by rapid filtration on a multi-manifold tissue harvester (Brandel, Gaithersburg, Md.) using GF/B filters presoaked in 0.33% polyethyleneimine (w/v) to reduce non-specific binding. […] Filters were then counted to determine radioactivity bound to the membranes by liquid scintillation counting (2200CA Tri-Carb LSC, Packard Instruments, 50% efficiency or Wallac Trilux 1450 MicroBeta, 40% efficiency, Perkin Elmer).
Data were expressed as disintegrations per minute (DPMs). […]

CYP2C9 = CYP2C9 (Homo sapiens, UniProt P11712); format: in vitro ADME
[3] = system: rats with scopolamine-induced cognitive deficits; experiment: Radial arm maze (RAM), scopolamine-induced deficit; format: in vivo, rat; settings: 0.03 mg/kg or 0.1 μmol/kg p.o. 0.5 h prior to test trial, scopolamine 0.3±0.1 mg/kg s.c.
Experimental: Working memory was assessed in a radial arm maze (RAM) task. The RAM task was conducted using an automated eight-arm maze (Med Associates, Inc.) The maze was located on a circular table approximately 88 cm above the floor with overhead lighting in a dedicated testing ambient and large, high contrast geometric shapes on the wall. Furthermore, additional visual cues were located at the hub entry into each arm, above each the food hopper and on the ceiling. The central platform measured 30.5 cm in diameter with eight arms (9 cm W×45.7 cm L×16.8 cm H) radiating from it. Automatic guillotine doors were located at the entrance to each runway with a pellet receptacle at the distal end of each arm. White noise will be audible during all training and testing procedures. Activity on the maze was monitored by tracking quantitative activity (generated by infra-red beam breaks) on the computer interface and monitor screen.
Following the baseline assessment and after re-attainment test session criterion, animals were assessed for their sensitivity to chemically-induced cognitive impairment using the muscarinic antagonist scopolamine (0.2-0.4 mg/kg; s.c.). A dose of scopolamine was determined for each animal based on the minimum dose that produced significant and reliable cognitive impairment. […]

T1 sequence (P32297 32-505): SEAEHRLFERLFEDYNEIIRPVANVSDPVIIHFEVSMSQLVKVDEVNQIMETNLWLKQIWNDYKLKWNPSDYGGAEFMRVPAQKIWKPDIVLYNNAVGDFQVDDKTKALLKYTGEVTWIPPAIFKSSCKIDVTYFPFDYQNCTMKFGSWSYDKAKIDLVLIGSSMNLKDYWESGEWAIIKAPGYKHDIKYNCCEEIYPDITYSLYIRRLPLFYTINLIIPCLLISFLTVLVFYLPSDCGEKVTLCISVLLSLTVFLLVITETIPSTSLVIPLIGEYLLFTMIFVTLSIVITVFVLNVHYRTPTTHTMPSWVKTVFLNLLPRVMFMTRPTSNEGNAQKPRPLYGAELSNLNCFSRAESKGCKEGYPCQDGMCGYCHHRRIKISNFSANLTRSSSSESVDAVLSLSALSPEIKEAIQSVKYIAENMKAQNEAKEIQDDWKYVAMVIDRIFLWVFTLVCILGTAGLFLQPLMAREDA
T1 sequence (P30926 22-498): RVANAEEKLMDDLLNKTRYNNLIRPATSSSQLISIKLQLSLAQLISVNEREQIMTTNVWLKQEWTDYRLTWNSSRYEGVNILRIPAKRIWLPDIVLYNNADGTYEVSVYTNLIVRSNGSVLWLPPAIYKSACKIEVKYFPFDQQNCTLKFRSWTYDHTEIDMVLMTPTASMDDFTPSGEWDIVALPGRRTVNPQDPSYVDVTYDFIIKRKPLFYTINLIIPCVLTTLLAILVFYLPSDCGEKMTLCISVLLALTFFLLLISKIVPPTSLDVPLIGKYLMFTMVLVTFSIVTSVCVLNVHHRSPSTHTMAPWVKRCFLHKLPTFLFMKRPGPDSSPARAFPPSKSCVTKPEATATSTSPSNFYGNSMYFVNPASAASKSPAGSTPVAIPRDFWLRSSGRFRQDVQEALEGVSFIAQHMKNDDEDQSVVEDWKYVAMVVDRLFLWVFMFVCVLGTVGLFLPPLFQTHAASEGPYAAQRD
CYP2B6, sequence (P20813 whole entry): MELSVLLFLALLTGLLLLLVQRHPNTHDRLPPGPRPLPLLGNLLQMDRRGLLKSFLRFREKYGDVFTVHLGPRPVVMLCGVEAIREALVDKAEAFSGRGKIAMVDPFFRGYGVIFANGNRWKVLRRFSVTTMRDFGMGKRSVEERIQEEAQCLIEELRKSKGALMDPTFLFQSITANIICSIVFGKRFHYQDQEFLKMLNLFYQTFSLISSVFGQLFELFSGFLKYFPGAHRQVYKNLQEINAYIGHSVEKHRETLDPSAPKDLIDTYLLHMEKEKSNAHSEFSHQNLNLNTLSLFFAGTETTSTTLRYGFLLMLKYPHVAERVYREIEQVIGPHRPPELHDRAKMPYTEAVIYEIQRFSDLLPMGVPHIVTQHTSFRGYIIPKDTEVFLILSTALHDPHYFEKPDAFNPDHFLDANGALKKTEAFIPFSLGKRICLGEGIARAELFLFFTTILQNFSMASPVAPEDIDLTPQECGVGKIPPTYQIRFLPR
CYP1A2, sequence (P05177 whole entry): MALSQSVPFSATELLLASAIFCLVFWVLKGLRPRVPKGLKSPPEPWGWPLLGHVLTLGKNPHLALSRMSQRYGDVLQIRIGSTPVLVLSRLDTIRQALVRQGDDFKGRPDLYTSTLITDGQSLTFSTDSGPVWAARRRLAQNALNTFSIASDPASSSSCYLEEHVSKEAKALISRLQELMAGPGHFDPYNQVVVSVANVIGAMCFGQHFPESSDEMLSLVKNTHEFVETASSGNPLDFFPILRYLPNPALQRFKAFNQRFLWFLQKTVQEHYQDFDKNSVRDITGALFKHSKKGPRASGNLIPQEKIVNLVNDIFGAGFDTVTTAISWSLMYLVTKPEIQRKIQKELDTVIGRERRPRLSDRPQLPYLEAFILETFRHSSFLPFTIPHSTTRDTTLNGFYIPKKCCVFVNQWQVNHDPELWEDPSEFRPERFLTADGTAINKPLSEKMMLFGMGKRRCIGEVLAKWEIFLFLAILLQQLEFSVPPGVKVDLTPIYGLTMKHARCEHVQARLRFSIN
T2 sequence (P09483 31-630): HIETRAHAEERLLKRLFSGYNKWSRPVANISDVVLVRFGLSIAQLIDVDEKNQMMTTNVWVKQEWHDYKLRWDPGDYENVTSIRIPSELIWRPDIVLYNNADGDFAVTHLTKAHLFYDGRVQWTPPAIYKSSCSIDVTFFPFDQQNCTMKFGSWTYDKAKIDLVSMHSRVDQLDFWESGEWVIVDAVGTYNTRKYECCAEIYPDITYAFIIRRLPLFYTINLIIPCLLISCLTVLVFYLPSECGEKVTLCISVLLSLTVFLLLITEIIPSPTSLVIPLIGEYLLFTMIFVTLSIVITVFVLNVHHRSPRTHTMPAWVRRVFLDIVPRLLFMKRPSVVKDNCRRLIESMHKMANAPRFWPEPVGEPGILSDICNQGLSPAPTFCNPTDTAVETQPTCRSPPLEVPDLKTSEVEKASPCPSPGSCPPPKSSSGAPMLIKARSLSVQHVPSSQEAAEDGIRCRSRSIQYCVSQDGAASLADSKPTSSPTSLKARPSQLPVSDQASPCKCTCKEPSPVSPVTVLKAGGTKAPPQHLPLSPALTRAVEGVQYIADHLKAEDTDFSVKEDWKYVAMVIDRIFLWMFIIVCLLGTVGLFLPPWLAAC
T2 sequence (P12390 25-500): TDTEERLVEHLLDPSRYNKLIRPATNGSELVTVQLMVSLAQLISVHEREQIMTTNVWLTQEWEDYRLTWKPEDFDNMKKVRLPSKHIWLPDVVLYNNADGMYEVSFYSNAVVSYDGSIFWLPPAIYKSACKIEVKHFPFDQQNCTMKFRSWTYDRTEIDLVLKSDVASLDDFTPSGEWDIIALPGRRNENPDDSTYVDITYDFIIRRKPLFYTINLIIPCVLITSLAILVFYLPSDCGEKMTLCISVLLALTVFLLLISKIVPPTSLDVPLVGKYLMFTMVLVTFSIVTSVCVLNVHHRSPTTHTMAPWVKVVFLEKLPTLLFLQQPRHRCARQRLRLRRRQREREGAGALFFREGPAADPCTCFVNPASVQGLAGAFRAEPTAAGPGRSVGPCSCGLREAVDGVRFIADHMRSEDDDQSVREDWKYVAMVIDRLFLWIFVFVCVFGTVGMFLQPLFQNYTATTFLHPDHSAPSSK
CYP2C9, sequence (P11712 whole entry): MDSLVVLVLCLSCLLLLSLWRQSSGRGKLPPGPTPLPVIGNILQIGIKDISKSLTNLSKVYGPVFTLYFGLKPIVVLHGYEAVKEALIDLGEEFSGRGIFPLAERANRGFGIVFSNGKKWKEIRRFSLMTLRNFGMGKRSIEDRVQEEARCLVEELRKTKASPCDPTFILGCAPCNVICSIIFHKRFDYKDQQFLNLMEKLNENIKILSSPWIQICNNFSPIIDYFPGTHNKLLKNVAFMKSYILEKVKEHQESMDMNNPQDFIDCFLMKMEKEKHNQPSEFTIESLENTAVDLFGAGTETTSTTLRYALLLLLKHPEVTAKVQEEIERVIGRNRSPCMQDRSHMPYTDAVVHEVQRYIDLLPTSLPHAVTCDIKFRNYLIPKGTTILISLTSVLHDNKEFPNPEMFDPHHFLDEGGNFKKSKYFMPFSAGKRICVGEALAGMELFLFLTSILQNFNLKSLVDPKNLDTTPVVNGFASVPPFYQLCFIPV

C(=C\[C@H]1CCNC1)/c1cncc(OC2CCOCC2)c1 [Compound A, (R)-3-((E)-2-(pyrrolidin-3-yl)vinyl)-5-(tetrahydropyran-4-yloxy)pyridine]
EC50 [1]: 11 µM | Human ganglionic (SH-SY5Y) Emax (Ca flux) ([1]; SH-SY5Y cells): μM, 13% | Emax ([1]; SH-SY5Y cells, read-out: Human ganglionic (SH-SY5Y) Emax (Ca flux)): 13% | time-dependent inhibition of CYP1A2 (CYP1A2): no evidence of time-dependent inhibition | time-dependent inhibition of CYP2B6 (CYP2B6): no evidence of time-dependent inhibition | Ki [2]: 0.004 µM | time-dependent inhibition of CYP2C9 (CYP2C9): no evidence of time-dependent inhibition | RAM effect on scopolamine-induced cognitive deficits [3]: overcomes scopolamine induced deficits | RAM effect on scopolamine-induced cognitive deficits ([3]; listed as (R)-3-((E)-2-(Pyrrolidin-3-yl)vinyl)-5-(tetrahydropyran-4-yloxy)pyridine): able to reverse scopolamine-induced cognitive deficits
